Measurements published in paper PMC9279632 (Acta Pharmaceutica Sinica. B, 2021).

Tests used:
ZIKV PRVABC59 = assay: PFU viral plaque reduction assay in A549 cells; format: cell-based; conditions: Zika virus, A549, read-out: EC50 (anti-ZIKV)
[1] = molecular target: T1, NS2B−NS3 protease (His-tagged NS2B / DENV2 NS3-MBP fusion protein) (Dengue virus type 2, UniProt P29990); assay: NS2B−NS3 protease inhibition assay with FRET substrate; format: biochemical
T1 sequence (P29990 1476-1653 limits assumed): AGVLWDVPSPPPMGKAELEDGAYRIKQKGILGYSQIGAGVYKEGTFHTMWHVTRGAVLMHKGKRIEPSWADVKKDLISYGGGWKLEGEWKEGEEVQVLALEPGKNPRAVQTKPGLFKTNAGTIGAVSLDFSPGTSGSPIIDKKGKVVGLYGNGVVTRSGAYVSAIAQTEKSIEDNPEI

[2] = molecular target: NS2B−NS3 interactions (NLuc-NS2B49−66 / GST-CLuc-NS3) (Dengue virus type 2, UniProt P29990); assay: Split luciferase complementation; format: binding
NS2B−NS3 interactions (NLuc-NS2B49−66 / GST-CLuc-NS3), sequence (P29990 1476-1660): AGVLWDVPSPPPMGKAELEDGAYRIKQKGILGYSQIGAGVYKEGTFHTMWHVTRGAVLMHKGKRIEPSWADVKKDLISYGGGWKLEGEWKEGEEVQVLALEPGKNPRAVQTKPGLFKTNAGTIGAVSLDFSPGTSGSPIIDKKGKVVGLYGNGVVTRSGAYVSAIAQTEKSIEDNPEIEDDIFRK

[3] = cited from earlier work
[4] = tested on: 3D mini-forebrain organoid; assay: Toxicity to 3D mini-forebrain organoid; format: cell-based, human; conditions: Fig. S2; organoids fell apart and lost clear boundary
[5] = IC50-SLC (NS2B–NS3 interaction), split luciferase complementation, n = 3

Row | Compound | EC50 (ZIKV PRVABC59) [µM] | IC50 [1] [µM] | IC50 ([2]; IC50-SLC) [µM] | IC50 [2, 5] [µM] | cellular cytotoxicity [3] | toxicity to 3D organoids (morphology) [4]
1 | O=C1OC2(c3ccccc31)c1ccc(O)c(Cl)c1Oc1c2ccc(O)c1Cl [JMX0892, 4′,5′-Dichloro-3′,6′-dihydroxy-3H-spiro[isobenzofuran-1,9′-xanthen]-3-one] | > 15 | > 60 | ~50 | 50 |  | 
2 | O=C1OC2(c3ccccc31)c1ccc(O)c(Br)c1Oc1c2ccc(O)c1Br [JMX0893, 4′,5′-dibromo-3′,6′-dihydroxy-3H-spiro[isobenzofuran-1,9′-xanthen]-3-one] | > 15 | > 60 |  | 16 |  | 
3 | O=C1OC2(c3cc(Cl)c(O)cc3Oc3cc(O)c(Cl)cc32)c2ccccc21 [JMX0897, 2′,7′-Dichloro-3′,6′-dihydroxy-3H-spiro[isobenzofuran-1,9′-xanthen]-3-one] | > 15 | 23 | ~50 | 48 |  | 
4 | O=C1OC2(c3cc(I)c(O)c(I)c3Oc3c2cc(I)c(O)c3I)c2c(Cl)c(Cl)c(Cl)c(Cl)c21 [JMX0902, Sodium 4,5,6,7-tetrachloro-2′,4′,5′,7′-tetraiodo-3-oxo-3H-spiro[isobenzofuran-1,9′-xanthene]-3′,6′-bis(olate)] | 0.3 | 2.6 |  | 0.43 |  | 
5 | O=C1OC2(c3ccccc31)c1ccc(O)c(I)c1Oc1c2ccc(O)c1I [JMX0903, Sodium 4′,5′-diiodo-3-oxo-3H-spiro[isobenzofuran-1,9′-xanthene]-3′,6′-bis(olate)] | > 15 | 60 |  | 15 |  | 
6 | O=C1OC2(c3ccccc31)c1cc(Br)c(O)c(Br)c1Oc1c2cc(Br)c(O)c1Br [JMX0911, 2′,4′,5′,7′-tetrabromo-3′,6′-dihydroxy-3H-spiro[isobenzofuran-1,9′-xanthen]-3-one] | > 15 |  |  | 3.4 |  | 
7 | O=C1OC2(c3ccc(O)cc3Oc3cc(O)ccc32)c2ccc(NC(=S)NCCS)cc21 [JMX0912, 1-(3′,6′-Dihydroxy-3-oxo-3H-spiro[isobenzofuran-1,9′-xanthen]-5-yl)-3-(2-mercaptoethyl)thiourea] | > 15 | 88 | > 50 | > 100 |  | 
8 | O=C1OC2(c3ccc(O)cc3Oc3cc(O)ccc32)c2ccccc21 [JMX0915, 3′,6′-Dihydroxy-3H-spiro[isobenzofuran-1,9′-xanthen]-3-one] | > 15 | > 100 | > 50 | > 100 |  | 
9 | O=C(O)c1ccc2c(c1)C(=O)OC21c2ccc(O)cc2Oc2cc(O)ccc21 [JMX0920, 3′,6′-Dihydroxy-3-oxo-3H-spiro[isobenzofuran-1,9′-xanthene]-5-carboxylic acid] | > 15 | > 100 | > 50 | 53 |  | 
10 | Oc1cccc(-c2c3nc(c(-c4cccc(O)c4)c4ccc([nH]4)c(-c4cccc(O)c4)c4nc(c(-c5cccc(O)c5)c5ccc2[nH]5)CC4)C=C3)c1 [temoporfin] |  |  |  |  | moderate cellular cytotoxicity | significant toxicity
